Common to all, as to assay: Method 1: intracellular Ca2+ release (FLIPR, Calcium 5) in recombinant CHO-K1 cells
What all share (type): cell-based

For one test, the target named is T1, human S1PR5 receptor (Homo sapiens, UniProt Q9H228).
T1 construct: host or cells: CHO-K1
The following applies: agonist potency, determined with method 1 (symbols A-D); read-out: S1P5 EC50 range. The gist of the method:
(§1)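 Agonist EC50; CHO-K1 + Gq/i5 + aequorin; Calcium 5 dye 1 h 37 °C, 45 min RT; serial-dilution compound add; FLIPR read; normalized to phospho-fingolimod.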

For the next test, the target named is T2, human S1PR1 receptor (Homo sapiens, UniProt P21453).
T2 construct: host or cells: CHO-K1
T2 sequence (P21453 whole entry): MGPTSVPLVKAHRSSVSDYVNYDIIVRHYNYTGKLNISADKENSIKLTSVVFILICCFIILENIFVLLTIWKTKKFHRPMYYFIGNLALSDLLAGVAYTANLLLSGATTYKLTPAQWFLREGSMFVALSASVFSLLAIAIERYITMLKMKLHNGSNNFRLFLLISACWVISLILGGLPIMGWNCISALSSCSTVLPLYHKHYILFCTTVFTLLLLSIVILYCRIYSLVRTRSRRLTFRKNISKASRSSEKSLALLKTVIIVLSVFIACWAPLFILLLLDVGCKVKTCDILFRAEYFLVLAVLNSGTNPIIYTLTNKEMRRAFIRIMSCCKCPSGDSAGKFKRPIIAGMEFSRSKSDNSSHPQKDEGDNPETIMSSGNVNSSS
The conditions noted are these: (1): determined with method 1; read-out: S1P1 EC50. The gist of the method:
as §1

The next test has as its target T3, human S1PR4 receptor (Homo sapiens, UniProt O95977).
T3 construct: host or cells: CHO-K1
T3 sequence (O95977 1-384): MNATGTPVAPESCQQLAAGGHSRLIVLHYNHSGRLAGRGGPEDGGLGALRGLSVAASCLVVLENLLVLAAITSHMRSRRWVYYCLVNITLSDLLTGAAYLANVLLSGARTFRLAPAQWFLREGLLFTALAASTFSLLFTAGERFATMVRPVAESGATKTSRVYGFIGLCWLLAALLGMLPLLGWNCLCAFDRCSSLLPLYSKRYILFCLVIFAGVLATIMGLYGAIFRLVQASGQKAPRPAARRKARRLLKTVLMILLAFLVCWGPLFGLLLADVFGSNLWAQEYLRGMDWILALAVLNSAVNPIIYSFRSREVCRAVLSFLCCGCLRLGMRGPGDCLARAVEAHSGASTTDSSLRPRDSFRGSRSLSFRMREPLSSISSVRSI
The conditions noted are these: (1): determined with method 1; read-out: S1P4 EC50. Summed up: as §1

The next test deals with T4, human S1PR3 receptor (Homo sapiens, UniProt Q99500).
T4 construct: host or cells: CHO-K1
T4 sequence (Q99500 whole entry): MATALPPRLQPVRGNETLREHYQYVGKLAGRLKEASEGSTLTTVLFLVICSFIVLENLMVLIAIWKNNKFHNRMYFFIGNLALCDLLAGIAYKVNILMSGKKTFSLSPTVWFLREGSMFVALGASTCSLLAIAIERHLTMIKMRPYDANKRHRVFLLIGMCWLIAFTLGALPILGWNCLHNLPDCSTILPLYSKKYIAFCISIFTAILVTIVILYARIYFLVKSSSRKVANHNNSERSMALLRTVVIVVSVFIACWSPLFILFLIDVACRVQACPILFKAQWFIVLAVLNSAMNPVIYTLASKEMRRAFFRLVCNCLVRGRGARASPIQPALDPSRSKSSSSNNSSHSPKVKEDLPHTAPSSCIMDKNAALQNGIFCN
The following applies: (1): determined with method 1; read-out: S1P3 EC50. The gist of the method: as §1

Structures can show the parent of a compound that is named as a salt. Bounds are passed on as bounds.

T1 sequence (Q9H228 whole entry): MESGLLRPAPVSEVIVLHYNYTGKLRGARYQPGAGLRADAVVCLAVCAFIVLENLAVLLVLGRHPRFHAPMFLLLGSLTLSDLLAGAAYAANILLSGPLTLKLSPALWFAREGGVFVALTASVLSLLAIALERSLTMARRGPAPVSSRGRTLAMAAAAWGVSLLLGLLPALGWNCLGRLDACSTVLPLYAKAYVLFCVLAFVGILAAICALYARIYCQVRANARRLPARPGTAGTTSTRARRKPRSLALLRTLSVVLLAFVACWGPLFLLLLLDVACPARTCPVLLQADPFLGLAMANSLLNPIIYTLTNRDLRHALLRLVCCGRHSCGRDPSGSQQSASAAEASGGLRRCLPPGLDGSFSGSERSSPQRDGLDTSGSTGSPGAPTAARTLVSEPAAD

For `CC(CCN1CCc2nc(-c3ccc(OCc4ccc(Cl)cc4)cc3)c(F)cc2C1)C(=O)O` (stereo not drawn) [Compound 181], the EC50 (in general, the concentration giving half of the maximal effect) on human S1PR5 receptor is under 10 nM; at human S1PR1 receptor, under 1000 nM; at human S1PR4 receptor, over 1000 nM; at human S1PR3 receptor it was over 1000 nM.
Regarding `CC(CCN1CCc2nc(-c3ccc(OCc4cccc(Cl)c4)cc3)c(F)cc2C1)C(=O)O` (stereo not drawn) [Compound 182, 4-(2-(4-((3-chlorobenzyl)oxy)phenyl)-3-fluoro-7,8-dihydro-1,6-naphthyridin-6(5H)-yl)-2-methylbutanoic acid], the concentration giving a half-maximal response (EC50) at human S1PR5 receptor was under 10 nM; at human S1PR1 receptor, over 1000 nM; at human S1PR4 receptor, over 1000 nM; on human S1PR3 receptor it was over 1000 nM.
As for `O=C(O)CCN1CCc2nc(-c3ccc(OCc4ccccc4)cc3)c(F)cc2C1` [Compound 186, 3-(2-(4-(benzyloxy)phenyl)-3-fluoro-7,8-dihydro-1,6-naphthyridin-6(5H)-yl)propanoic acid], the half-maximal effective concentration (EC50) was under 10 nM at human S1PR5 receptor, over 1000 nM at human S1PR1 receptor, over 1000 nM at human S1PR4 receptor and over 1000 nM on human S1PR3 receptor.
Consider `O=C(O)CCN1CCc2nc(-c3ccc(OCc4cccc(Cl)c4)cc3)c(F)cc2C1` [Compound 189, 3-(2-(4-((3-chlorobenzyl)oxy)phenyl)-3-fluoro-7,8-dihydro-1,6-naphthyridin-6(5H)-yl)propanoic acid], for which the EC50 on human S1PR5 receptor is under 10 nM; on human S1PR1 receptor, over 1000 nM; at human S1PR4 receptor, over 1000 nM; at human S1PR3 receptor it was over 1000 nM.
`O=C(O)CCN1CCc2nc(-c3ccc(OCc4c(Cl)cccc4Cl)cc3)c(F)cc2C1` [Compound 192, 3-(2-(4-((2,6-dichlorobenzyl)oxy)phenyl)-3-fluoro-7,8-dihydro-1,6-naphthyridin-6(5H)-yl)propanoic acid]: the EC50 is under 10 nM on human S1PR5 receptor, over 1000 nM at human S1PR1 receptor, over 1000 nM at human S1PR4 receptor and over 1000 nM at human S1PR3 receptor.
Regarding `O=C(O)CCN1CCc2nc(-c3ccc(OCc4cccc(F)c4)cc3)c(F)cc2C1` [Compound 193, 3-(2-(4-((3-fluorobenzyl)oxy)phenyl)-3-fluoro-7,8-dihydro-1,6-naphthyridin-6(5H)-yl)propanoic acid], the 50% effective concentration (EC50) on human S1PR5 receptor is under 10 nM; at human S1PR1 receptor, over 1000 nM; on human S1PR4 receptor, over 1000 nM; at human S1PR3 receptor, over 1000 nM.
For the compound `CC(C)(CC(=O)O)CN1CCc2nc(-c3ccc(OCc4ccc(Cl)cc4)cc3)ncc2C1` [Compound 210, 4-(2-(4-((4-chlorobenzyl)oxy)phenyl)-7,8-dihydropyrido[4,3-d]pyrimidin-6(5H)-yl)-3,3-dimethylbutanoic acid], the EC50 was 1000 to 10000 nM on human S1PR5 receptor, over 1000 nM on human S1PR1 receptor, over 1000 nM on human S1PR4 receptor and over 1000 nM on human S1PR3 receptor.
Turning to `CC(CCC(=O)O)N1CCc2nc(-c3ccc(Cc4ccccc4)cc3)ncc2C1` (stereo not drawn) [Compound 214, 4-(2-(4-benzylphenyl)-7,8-dihydropyrido[4,3-d]pyrimidin-6(5H)-yl)pentanoic acid], the 50% effective concentration (EC50) at human S1PR5 receptor is 1000 to 10000 nM; at human S1PR1 receptor it was over 1000 nM; on human S1PR4 receptor it was over 1000 nM; at human S1PR3 receptor, over 1000 nM.
Consider `O=C(O)C1(CN2CCc3nc(-c4ccc(OCc5ccc(Cl)cc5)cc4)ncc3C2)CC1` [Compound 215, 1-((2-(4-((4-chlorobenzyl)oxy)phenyl)-7,8-dihydropyrido[4,3-d]pyrimidin-6(5H)-yl)methyl)cyclopropanecarboxylic acid], for which the EC50 was 1000 to 10000 nM on human S1PR5 receptor, over 1000 nM at human S1PR1 receptor, over 1000 nM on human S1PR4 receptor and over 1000 nM at human S1PR3 receptor.
Take `O=C(O)C1(CN2CCc3nc(-c4ccc(Cc5ccccc5)cc4)ncc3C2)CC1` [Compound 218, 1-((2-(4-benzylphenyl)-7,8-dihydropyrido[4,3-d]pyrimidin-6(5H)-yl)methyl)cyclopropanecarboxylic acid]: the concentration giving a half-maximal response (EC50) on human S1PR5 receptor is 1000 to 10000 nM; on human S1PR1 receptor, over 1000 nM; at human S1PR4 receptor it was over 1000 nM; at human S1PR3 receptor, over 1000 nM.
For the compound `O=C(O)CCN1CCc2cc(OCc3c(Cl)cccc3Cl)ncc2C1` [Compound 219, 3-(6-((2,6-dichlorobenzyl)oxy)-3,4-dihydro-2,7-naphthyridin-2(1H)-yl)propanoic acid hydrochloride], the half-maximal effective concentration (EC50) on human S1PR5 receptor was 100 to 1000 nM; at human S1PR1 receptor it was over 1000 nM; at human S1PR4 receptor it was over 1000 nM; at human S1PR3 receptor, over 1000 nM.
Consider `CC(CC(=O)O)CN1CCc2nc(-c3ccc(OCc4ccc(F)cc4)cc3)ncc2C1` (stereo not drawn) [Compound 225, 4-(2-(4-((4-fluorobenzyl)oxy)phenyl)-7,8-dihydropyrido[4,3-d]pyrimidin-6(5H)-yl)-3-methylbutanoic acid], for which the concentration for a half-maximal effect (EC50) at human S1PR5 receptor was under 10 nM; at human S1PR1 receptor it was over 1000 nM; on human S1PR4 receptor, over 1000 nM; on human S1PR3 receptor, over 1000 nM.
Take `CC(CC(=O)O)CN1CCc2nc(-c3ccc(OCc4cccc(F)c4F)cc3)ncc2C1` (stereo not drawn) [Compound 226, 4-[2-[4-[(2,3-difluorophenyl)methoxy]phenyl]-7,8-dihydro-5H-pyrido[4,3-d]pyrimidin-6-yl]-3-methyl-butanoic acid 2,2,2-trifluoroacetic acid salt]: the concentration for a half-maximal effect (EC50) at human S1PR5 receptor is under 10 nM; on human S1PR1 receptor, under 1000 nM; at human S1PR4 receptor, over 1000 nM; at human S1PR3 receptor, over 1000 nM.
On to `CC(CC(=O)O)CN1CCc2nc(-c3ccc(OCc4cccc(F)c4)cc3)ncc2C1` (stereo not drawn) [Compound 227, 4-(2-(4-((3-fluorobenzyl)oxy)phenyl)-7,8-dihydropyrido[4,3-d]pyrimidin-6(5H)-yl)-3-methylbutanoic acid], for which the 50% effective concentration (EC50) at human S1PR5 receptor is under 10 nM; on human S1PR1 receptor it was over 1000 nM; at human S1PR4 receptor, under 1000 nM; on human S1PR3 receptor it was over 1000 nM.
For `CC(CC(=O)O)CN1CCc2nc(-c3ccc(OCc4ccc(F)c(F)c4)cc3)ncc2C1` (stereo not drawn) [Compound 228, 4-(2-(4-((3,4-difluorobenzyl)oxy)phenyl)-7,8-dihydropyrido[4,3-d]pyrimidin-6(5H)-yl)-3-methylbutanoic acid], the 50% effective concentration (EC50) was under 10 nM at human S1PR5 receptor, over 1000 nM on human S1PR1 receptor, over 1000 nM at human S1PR4 receptor and over 1000 nM at human S1PR3 receptor.
For `CC(CC(=O)O)CN1CCc2nc(-c3ccc(OCc4ccccc4Cl)cc3)ncc2C1` (stereo not drawn) [Compound 229, 4-[2-[4-[(2-chlorophenyl)methoxy]phenyl]-7,8-dihydro-5H-pyrido[4,3-d]pyrimidin-6-yl]-3-methyl-butanoic acid 2,2,2-trifluoroacetic acid salt], the EC50 on human S1PR5 receptor is under 10 nM; at human S1PR1 receptor it was under 1000 nM; at human S1PR4 receptor, over 1000 nM; at human S1PR3 receptor it was over 1000 nM.
Consider `Cc1cccc(COc2ccc(-c3ncc4c(n3)CCN(CC(C)CC(=O)O)C4)cc2)c1` (stereo not drawn) [Compound 230, 3-methyl-4-(2-(4-((3-methylbenzyl)oxy)phenyl)-7,8-dihydropyrido[4,3-d]pyrimidin-6(5H)-yl)butanoic acid], for which the EC50 on human S1PR5 receptor is under 10 nM; on human S1PR1 receptor, under 1000 nM; at human S1PR4 receptor, over 1000 nM; at human S1PR3 receptor it was over 1000 nM.
Turning to `Cc1cccc(COc2ccc(-c3ncc4c(n3)CCN(CC(C)CC(=O)O)C4)c(F)c2)c1C` (stereo not drawn) [Compound 231, 4-[2-[4-[(2,3-dimethylphenyl)methoxy]-2-fluoro-phenyl]-7,8-dihydro-5H-pyrido[4,3-d]pyrimidin-6-yl]-3-methyl-butanoic acid 2,2,2-trifluoroacetic acid salt], the EC50 at human S1PR5 receptor is under 10 nM; on human S1PR1 receptor it was over 1000 nM; on human S1PR4 receptor it was over 1000 nM; on human S1PR3 receptor it was over 1000 nM.
As to `CC(CC(=O)O)CN1CCc2nc(-c3ccc(OCc4cccc(Cl)c4)cc3F)ncc2C1` (stereo not drawn) [Compound 232, 4-(2-(4-((3-chlorobenzyl)oxy)-2-fluorophenyl)-7,8-dihydropyrido[4,3-d]pyrimidin-6(5H)-yl)-3-methylbutanoic acid], the EC50 at human S1PR5 receptor was under 10 nM; at human S1PR1 receptor it was over 1000 nM; at human S1PR4 receptor, over 1000 nM; at human S1PR3 receptor it was over 1000 nM.
Take `CC(CC(=O)O)CN1CCc2nc(-c3ccc(OCc4ccc(C(F)(F)F)cc4)cc3)ncc2C1` (stereo not drawn) [Compound 233, 3-methyl-4-(2-(4-((4-(trifluoromethyl)benzyl)oxy)phenyl)-7,8-dihydropyrido[4,3-d]pyrimidin-6(5H)-yl)butanoic acid]: the concentration giving a half-maximal response (EC50) is under 10 nM at human S1PR5 receptor, under 1000 nM on human S1PR1 receptor, under 1000 nM at human S1PR4 receptor and over 1000 nM on human S1PR3 receptor.
Take `Cc1ccccc1COc1ccc(-c2ncc3c(n2)CCN(CC(C)CC(=O)O)C3)cc1` (stereo not drawn) [Compound 234, 3-methyl-4-[2-[4-(o-tolylmethoxy)phenyl]-7,8-dihydro-5H-pyrido[4,3-d]pyrimidin-6-yl]butanoic acid 2,2,2-trifluoroacetic acid salt]: the EC50 at human S1PR5 receptor is under 10 nM; on human S1PR1 receptor, under 1000 nM; at human S1PR4 receptor, over 1000 nM; at human S1PR3 receptor, over 1000 nM.

For the origin of these results see patent US10556907B2 (AbbVie Inc., priority 2015, dated 2020).
